Laboratory results as given in publication PMC5458078, “Global mapping of CARM1 substrates defines enzyme specificity and substrate recognition” (Nature Communications, 2017).

What follows are substances tested on MCF7 cells (assay: Quantitative nanoLC-MS/MS (TMT) of ADMA-containing peptides, CARM1 KO vs parental). Details: MCF7, CARM1 KO (KO1-KO3) vs wild type (WT1-WT3).
Type: cell-based, human
Set-up: Fold change KO/WT: scale not given here

In the case of FrLSLFSDLPEDTELQR, the “Fold change KO/WT” value is reported as -2.692.

Same assay, conditions: MCF7, CARM1 KO vs WT, three biological replicates each

Going from IPYPAGTLPNPLLPHPLHENEVLrHQLFAAPYR to “VLGIIPSSTGTSQQTFTSFQPrTATVTIrPNTSGSGGTTSNSQVITGPQIrPGMTVIrTPLQQSTLGK”, the “Fold change KO/WT” value falls from -1.146 to -6.437.

Compared with TSSGLFPrIPLQPQAPVSSIGSPVGTPK, QIrFSQGQQLVTK is higher in “Fold change KO/WT” value: -2.869 for the first, -2.537 for the second.

First: APPGGLHAPrLSLEGAArGAAEAK
Second: ErLALAAGPALrPDMSYAER
The “Fold change KO/WT” value of the first is lower: -2.606 for the first, -2.368 for the second.

Compared with QLPNAGPGAPPALGFSrFPAGArYAGAGGLER, “TATVTIrPNTSGSGGTTSNSQVITGPQIrPGMTVIrTPLQQSTLGK” is higher in “Fold change KO/WT” value: -4.1849 for the first, -2.17 for the second.

Going from TGALPGPGPLSNPrLGGLPGPGPMSNPR to GALSISAPLGDFrHTLHVGR, the “Fold change KO/WT” value rises from -3.491 to -1.149.

Same assay, conditions: MCF7, CARM1 knockout vs wild type, n = 3 each

Going from SHGYKPHFVPNFNGPNAIrQFQPNQINENWK to YLQTVQYGVHGNFPrLSYPTFFPR, the “Fold change KO/WT” value falls from -2.033 to -2.556.

First: SGFAATSQPGPrLPFIQHSQNPR
Second: LHrSPLTFPAWVrPPEAAR
The “Fold change KO/WT” value of the first is higher: -1.049 for the first, -1.489 for the second.

Going from LLFQNLWKPrLNVP to CrQPAPPTSQPPrAQPFAQPPGPWPLSSPGPrLVFNR, the “Fold change KO/WT” value rises from -4.157 to -3.117.

Going from STNPELPPrLGPVPSGLSQK to APPVrYCIPGER, the “Fold change KO/WT” value falls from -2.804 to -5.161.

Going from SGSGNFGGGrGGGFGGNDNFGrGGNFSGrGGFGGSR to GrFPGAVPGGDrFPGPAGPGGPPPPFPGNLIK, the “Fold change KO/WT” value falls from 0.2137 to -2.782.

Going from KPLGTAPHCPrLPLR to SAPrLNTTNAWGAAPPSLGSQPLYR, the “Fold change KO/WT” value rises from -3.016 to -1.593.

Going from GGrGrGGSGGGGGGGGGGYNR to ErYLGGIK, the “Fold change KO/WT” value rises from -0.05268 to 0.4212.

Same assay, conditions: MCF7 CARM1 knockout vs wild type, 3 biological replicates each; values are on log2 scale

First: LLGQRPGPYDRPIGGrGGYYGAGR
Second: VSTSGPrAFSSR
The “Fold change KO/WT” value of the first is higher: -0.08078 for the first, -3.388 for the second.

First: VSTSGPrAFSSrSYTSGPGSR
Second: VGSSNFrGGLGGGYGGASGMGGITAVTVNQSLLSPLVLEVDPNIQAVR
The “Fold change KO/WT” value of the first is lower: -3.7435 for the first, -0.7814 for the second.

Going from QrLPFSAPPGSVVEASSNLR to RGPPPPPPGrGGrGGSR, the “Fold change KO/WT” value rises from -1.459 to 0.3155.

Compared with ISSSSFSrVGSSNFR, GPPGGNrGGFQNrGGGSGGGGNYrGGFNR is higher in “Fold change KO/WT” value: -3.151 for the first, 0.2458 for the second.

What follows are substances tested on MCF7 CARM1 KO cells (assay: Quantitative MS of ADMA-containing peptides in MCF7 CARM1 KO cells expressing CARM1 28-608 or CARM1 140-608, and in CARM1 KO). Details: not given.
Type: cell-based, human

With ISSSSFSrVGSSNFR the “CARM1 140-608/WT” value was -2.763.

Substance ISSSSFSrVGSSNFR has a KO/WT of -3.151.

Same assay, conditions: CARM1 140-608 vs WT, mean of 3 replicates (log2 scale)

With FrLSLFSDLPEDTELQR the “CARM1 140-608/WT” value was -2.025.

Same assay, conditions: CARM1 140-608 vs WT, mean of 3 replicates, log2

Going from IPYPAGTLPNPLLPHPLHENEVLrHQLFAAPYR to “VLGIIPSSTGTSQQTFTSFQPrTATVTIrPNTSGSGGTTSNSQVITGPQIrPGMTVIrTPLQQSTLGK”, the “CARM1 140-608/WT” value falls from -0.5059 to -2.572.

First: TSSGLFPrIPLQPQAPVSSIGSPVGTPK
Second: APPGGLHAPrLSLEGAArGAAEAK
The “CARM1 140-608/WT” value of the first is higher: 0.8175 for the first, -2.013 for the second.

Going from ErLALAAGPALrPDMSYAER to QLPNAGPGAPPALGFSrFPAGArYAGAGGLER, the “CARM1 140-608/WT” value falls from -1.6609 to -2.691.

With “TATVTIrPNTSGSGGTTSNSQVITGPQIrPGMTVIrTPLQQSTLGK” the “CARM1 140-608/WT” value was 1.9774.

Same assay, conditions: KO vs WT, mean of 3 replicates (log2 scale)

With FrLSLFSDLPEDTELQR the KO/WT was -2.692.

Same assay, conditions: KO vs WT, mean of 3 replicates, log2

First: IPYPAGTLPNPLLPHPLHENEVLrHQLFAAPYR
Second: VLGIIPSSTGTSQQTFTSFQPrTATVTIrPNTSGSGGTTSNSQVITGPQIrPGMTVIrTPLQQSTLGK
The KO/WT of the first is higher: -1.312 for the first, -6.437 for the second.

Going from TSSGLFPrIPLQPQAPVSSIGSPVGTPK to APPGGLHAPrLSLEGAArGAAEAK, the KO/WT falls from -2.603 to -2.606.

Going from ErLALAAGPALrPDMSYAER to QLPNAGPGAPPALGFSrFPAGArYAGAGGLER, the KO/WT falls from -2.368 to -4.1849.

With “TATVTIrPNTSGSGGTTSNSQVITGPQIrPGMTVIrTPLQQSTLGK” the KO/WT was -1.958.

Same assay, conditions: difference of log2 means, CARM1 140-608 vs WT

Going from VSTSGPrAFSSR to VSTSGPrAFSSrSYTSGPGSR, the “CARM1 140-608/WT” value falls from -3.216 to -3.492.

Going from “VGSSNFrGGLGGGYGGASGMGGITAVTVNQSLLSPLVLEVDPNIQAVR” to QrLPFSAPPGSVVEASSNLR, the “CARM1 140-608/WT” value rises from -0.9286 to -0.4663.

Same assay, conditions: difference of log2 means, KO vs WT

Going from VSTSGPrAFSSR to VSTSGPrAFSSrSYTSGPGSR, the KO/WT falls from -3.388 to -3.7435.

Going from “VGSSNFrGGLGGGYGGASGMGGITAVTVNQSLLSPLVLEVDPNIQAVR” to QrLPFSAPPGSVVEASSNLR, the KO/WT falls from -0.7814 to -1.419.

Same assay, conditions: mean, CARM1 140-608 versus WT (log2 scale)

Going from LLGQRPGPYDRPIGGrGGYYGAGR to YLQTVQYGVHGNFPrLSYPTFFPR, the “CARM1 140-608/WT” value falls from 0.09661 to -2.496.

Going from SGFAATSQPGPrLPFIQHSQNPR to RGPPPPPPGrGGrGGSR, the “CARM1 140-608/WT” value rises from -0.196 to 0.09749.

Going from SGSGNFGGGrGGGFGGNDNFGrGGNFSGrGGFGGSR to KPLGTAPHCPrLPLR, the “CARM1 140-608/WT” value falls from 0.1031 to -2.281.

First: GGrGrGGSGGGGGGGGGGYNR
Second: GPPGGNrGGFQNrGGGSGGGGNYrGGFNR
The “CARM1 140-608/WT” value of the first is higher: 0.1837 for the first, 0.1824 for the second.

Same assay, conditions: mean, CARM1 KO versus WT (log2 scale)

Compared with LLGQRPGPYDRPIGGrGGYYGAGR, YLQTVQYGVHGNFPrLSYPTFFPR is lower in KO/WT: 0.2187 for the first, -3.476 for the second.

Going from SGFAATSQPGPrLPFIQHSQNPR to RGPPPPPPGrGGrGGSR, the KO/WT rises from -1.374 to 0.3155.

First: SGSGNFGGGrGGGFGGNDNFGrGGNFSGrGGFGGSR
Second: KPLGTAPHCPrLPLR
The KO/WT of the first is higher: 0.7867 for the first, -3.016 for the second.

Going from GGrGrGGSGGGGGGGGGGYNR to GPPGGNrGGFQNrGGGSGGGGNYrGGFNR, the KO/WT falls from 0.3356 to 0.1614.

Same assay, conditions: ratio on log2 scale, mean of 3 replicates

First: SHGYKPHFVPNFNGPNAIrQFQPNQINENWK
Second: LHrSPLTFPAWVrPPEAAR
The “CARM1 140-608/WT” value of the first is higher: -1.237 for the first, -1.436 for the second.

Going from QIrFSQGQQLVTK to LLFQNLWKPrLNVP, the “CARM1 140-608/WT” value falls from -1.837 to -1.893.

Compared with CrQPAPPTSQPPrAQPFAQPPGPWPLSSPGPrLVFNR, STNPELPPrLGPVPSGLSQK is lower in “CARM1 140-608/WT” value: -1.684 for the first, -2.1 for the second.

Going from TGALPGPGPLSNPrLGGLPGPGPMSNPR to APPVrYCIPGER, the “CARM1 140-608/WT” value falls from -0.9797 to -3.736.

Going from GrFPGAVPGGDrFPGPAGPGGPPPPFPGNLIK to GALSISAPLGDFrHTLHVGR, the “CARM1 140-608/WT” value rises from -1.24 to -1.004.

Going from SAPrLNTTNAWGAAPPSLGSQPLYR to ErYLGGIK, the “CARM1 140-608/WT” value rises from -0.6132 to 0.1385.

Going from SHGYKPHFVPNFNGPNAIrQFQPNQINENWK to LHrSPLTFPAWVrPPEAAR, the KO/WT rises from -2.033 to -1.489.

Going from QIrFSQGQQLVTK to LLFQNLWKPrLNVP, the KO/WT falls from -2.537 to -4.858.

Compared with CrQPAPPTSQPPrAQPFAQPPGPWPLSSPGPrLVFNR, STNPELPPrLGPVPSGLSQK is higher in KO/WT: -3.117 for the first, -2.804 for the second.

First: TGALPGPGPLSNPrLGGLPGPGPMSNPR
Second: APPVrYCIPGER
The KO/WT of the first is higher: -1.901 for the first, -5.161 for the second.

Going from GrFPGAVPGGDrFPGPAGPGGPPPPFPGNLIK to GALSISAPLGDFrHTLHVGR, the KO/WT rises from -2.782 to -1.149.

Compared with SAPrLNTTNAWGAAPPSLGSQPLYR, ErYLGGIK is higher in KO/WT: -1.593 for the first, 0.4212 for the second.
